Literature values as cited in patent publication US20110237609A1, “ANTIFOLATE COMPOSITIONS” (Chelsea Therapeutics, Inc., priority 2010, published 2011).

Columns and labels:
[1] = in words; b190 refers to US 20090253720
[2] = in words, background statement

bioavailability [2]	SMILES	solubility characteristics [1]
low bioavailability	C=C(CC(NC(=O)c1ccc(CCc2ccc3nc(N)nc(N)c3c2)cc1)C(=O)O)C(=O)O (racemic) [compound of Formula (9), 2-{-4-[2-(2,4-diamino-quinazolin-6-yl)-ethyl]-benzoylamino}-4-methylene-pentanedioic acid]	low solubility
–	C=C(CC(NC(=O)c1ccc(CCc2ccc3nc(N)nc(N)c3c2)cc1)C(=O)O)C(=O)O (stereo not drawn)	improved solubility characteristics in comparison to the dioic acid form
